Reference: ChEMBL document CHEMBL4765455, “Design, synthesis, and biological evaluations of novel 3-amino-4-ethynyl indazole derivatives as Bcr-Abl kinase inhibitors with potent cellular antileukemic activity” (Eur J Med Chem, 2020)

What was measured:
K562 [1] = assay: Antiproliferative activity against human K562 cells assessed as cell growth inhibition incubated for 72 hrs by MTT assay; type: functional
K562 [2] = assay: Antiproliferative activity against human K562 cells assessed as cell growth inhibition measured after 48 hrs by SRB assay; type: functional
[3] = target: High affinity nerve growth factor receptor (Homo sapiens) (UniProt P04629); assay: Inhibition of TRKA (unknown origin) at 1 uM relative to control
MOLT-4 [4] = assay: Antiproliferative activity against human MOLT-4 cells assessed as cell growth inhibition measured after 48 hrs by SRB assay; type: functional
[5] = Clearance in ICR mouse at 5 mg/kg, iv measured up to 8 hrs by LC-MS/MS analysis; type: ADME, organism-based; conditions: in vivo
[6] = target: Tyrosine-protein kinase ABL1 (Homo sapiens, UniProt P00519); assay: Inhibition of NanoLuc-fused ABL1 (unknown origin) expressed in human HEK293 cells incubated for 2 to 3 mins by NanoBRET assay; type: cell-based
Homo sapiens [7] = species on record: Homo sapiens; assay: Potency index, ratio of test compound IC50 to E4031 IC50 for human […]
[8] = target: Macrophage colony-stimulating factor 1 receptor (Homo sapiens, UniProt P07333); assay: Inhibition of FMS (unknown origin) at 1 uM relative to control
[9] = target: Focal adhesion kinase 1 (Homo sapiens) (UniProt Q05397); assay: Inhibition of FAK/PTK2 (unknown origin) at 1 uM relative to control
[10] = target: Death-associated protein kinase 1 (Homo sapiens) (UniProt P53355); assay: Inhibition of DAPK1 (unknown origin) at 1 uM relative to control
[11] = target: T1, Proto-oncogene tyrosine-protein kinase Src (Homo sapiens, UniProt P12931); assay: Inhibition of c-Src (unknown origin) at 1 uM relative to control
[12] = Antiproliferative activity against human L132 cells assessed as cell growth inhibition incubated for 72 hrs by MTT assay; type: cell-based
K562 [13] = assay: Antiproliferative activity against human K562 cells assessed as cell growth inhibition at 10 uM measured after 48 hrs by SRB assay relative to control; type: functional; conditions: read-out: GI
SR [14] = assay: Antiproliferative activity against human SR cells assessed as cell growth inhibition at 10 uM measured after 48 hrs by SRB assay relative to control; type: functional; conditions: read-out: GI
HL-60(TB) [15] = assay: Antiproliferative activity against human HL-60(TB) cells assessed as cell growth inhibition measured after 48 hrs by SRB assay; type: functional
[16] = AUClast in ICR mouse at 10 mg/kg, po measured up to 8 hrs by LC-MS/MS analysis; type: ADME, organism-based; set-up: route oral, dose 10 mg/kg, time <=8; conditions: in vivo
SR [17] = assay: Antiproliferative activity against human SR cells assessed as cell growth inhibition measured after 48 hrs by SRB assay; type: functional
Bcr/Abl fusion protein [18] = target: Bcr/Abl fusion protein (Homo sapiens, UniProt P00519, T315I); assay: Inhibition of BCR-ABL T315I mutant (unknown origin) incubated for 40 mins in presence of [gamma33P]ATP by scintillation method; type: protein assay
MOLT-4 [19] = assay: Antiproliferative activity against human MOLT-4 cells assessed as cell growth inhibition at 10 uM measured after 48 hrs by SRB assay relative to control; type: functional; conditions: read-out: GI
[20] = Mean residence time in ICR mouse at 5 mg/kg, iv measured up to 8 hrs by LC-MS/MS analysis; type: ADME, organism-based; conditions: in vivo
[21] = Volume of distribution at steady state in ICR mouse at 5 mg/kg, iv measured up to 8 hrs by LC-MS/MS analysis; type: ADME, organism-based; conditions: in vivo, read-out: Vdss
[22] = target: Serine/threonine-protein kinase PLK1 (Homo sapiens) (UniProt P53350); assay: Inhibition of PLK1 (unknown origin) at 1 uM relative to control
[23] = target: Serine/threonine-protein kinase pim-1 (Homo sapiens) (UniProt P11309); assay: Inhibition of PIM1 (unknown origin) at 1 uM relative to control
RPMI-8226 [24] = assay: Antiproliferative activity against human RPMI-8226 cells assessed as cell growth inhibition at 10 uM measured after 48 hrs by SRB assay relative to control; type: functional; conditions: read-out: GI
[25] = Half life in ICR mouse at 10 mg/kg, po measured up to 8 hrs by LC-MS/MS analysis; type: ADME, organism-based; conditions: in vivo
Homo sapiens [26] = species on record: Homo sapiens; assay: Selectivity index, ratio of IC50 for c-Src (unknown origin) to IC50 for Bcr-Abl (unknown origin)
[27] = target: Serine/threonine-protein kinase B-raf (Homo sapiens, UniProt P15056); assay: Inhibition of BRAF (unknown origin) at 1 uM relative to control
[28] = Selectivity index, ratio of GI50 for human HL60(TB) cells to GI50 for human K562 cells; type: functional
[29] = target: Cyclin-dependent kinase 4/cyclin D1 (Homo sapiens) (UniProt P11802+P24385); assay: Inhibition of CDK4/cyclinD1 (unknown origin) at 1 uM relative to control; type: protein-complex assay
[30] = target: Aurora kinase A (Homo sapiens) (UniProt O14965); assay: Inhibition of Aurora A (unknown origin) at 1 uM relative to control
Bcr/Abl fusion protein [31] = target: Bcr/Abl fusion protein (Homo sapiens, UniProt P00519); assay: Inhibition of wild type BCR-ABL (unknown origin) incubated for 40 mins in presence of [gamma33P]ATP by scintillation method; type: protein assay
RPMI-8226 [32] = assay: Antiproliferative activity against human RPMI-8226 cells assessed as cell growth inhibition measured after 48 hrs by SRB assay; type: functional
[33] = Mean residence time in ICR mouse at 10 mg/kg, po measured up to 8 hrs by LC-MS/MS analysis; type: ADME, organism-based; conditions: in vivo
[34] = target: Rho-associated protein kinase 1 (Homo sapiens) (UniProt Q13464); assay: Inhibition of ROCK1 (unknown origin) at 1 uM relative to control
Homo sapiens [35] = species on record: Homo sapiens; assay: Selectivity index, ratio of IC50 for FMS (unknown origin) to IC50 for Bcr-Abl (unknown origin)
[36] = target: Receptor-type tyrosine-protein kinase FLT3 (Homo sapiens) (UniProt P36888); assay: Inhibition of FLT3 (unknown origin) at 1 uM relative to control
[37] = target: T1, Proto-oncogene tyrosine-protein kinase Src; assay: Inhibition of c-Src (unknown origin) in presence of ATP
[38] = target: Insulin-like growth factor 1 receptor (Homo sapiens) (UniProt P08069); assay: Inhibition of IGF1R (unknown origin) at 1 uM relative to control
[39] = Tmax in ICR mouse at 10 mg/kg, po measured up to 8 hrs by LC-MS/MS analysis; type: ADME, organism-based; conditions: in vivo
[40] = target: Epidermal growth factor receptor (Homo sapiens) (UniProt P00533); assay: Inhibition of EGFR (unknown origin) at 1 uM relative to control
[41] = target: Voltage-gated inwardly rectifying potassium channel KCNH2 (Homo sapiens, UniProt Q12809); assay: Inhibition of human ERG incubated for 4 hrs by competitive fluorescence tracer binding based assay
HL-60(TB) [42] = assay: Antiproliferative activity against human HL-60(TB) cells assessed as cell growth inhibition at 10 uM measured after 48 hrs by SRB assay relative to control; type: functional; conditions: read-out: GI
CCRF-CEM = assay: Antiproliferative activity against human CCRF-CEM cells assessed as cell growth inhibition measured after 48 hrs by SRB assay; type: functional

T1 sequence (P12931 2-536 limits assumed): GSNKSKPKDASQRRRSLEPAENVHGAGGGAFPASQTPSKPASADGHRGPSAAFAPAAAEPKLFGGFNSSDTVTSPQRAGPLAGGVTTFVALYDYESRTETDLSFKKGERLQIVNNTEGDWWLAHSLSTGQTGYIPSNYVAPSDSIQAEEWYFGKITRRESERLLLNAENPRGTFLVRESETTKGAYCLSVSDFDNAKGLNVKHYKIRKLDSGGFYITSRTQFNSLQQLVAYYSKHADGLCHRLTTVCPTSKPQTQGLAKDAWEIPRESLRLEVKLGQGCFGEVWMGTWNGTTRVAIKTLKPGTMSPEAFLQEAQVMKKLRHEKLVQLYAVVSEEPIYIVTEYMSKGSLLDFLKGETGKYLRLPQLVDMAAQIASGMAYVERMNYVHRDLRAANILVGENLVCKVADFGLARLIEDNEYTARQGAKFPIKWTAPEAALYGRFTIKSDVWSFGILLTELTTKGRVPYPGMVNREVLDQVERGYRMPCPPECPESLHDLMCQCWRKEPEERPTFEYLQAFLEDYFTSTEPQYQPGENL
Chain of Aurora kinase A (Homo sapiens) (O14965 whole entry, the tested form may be a part): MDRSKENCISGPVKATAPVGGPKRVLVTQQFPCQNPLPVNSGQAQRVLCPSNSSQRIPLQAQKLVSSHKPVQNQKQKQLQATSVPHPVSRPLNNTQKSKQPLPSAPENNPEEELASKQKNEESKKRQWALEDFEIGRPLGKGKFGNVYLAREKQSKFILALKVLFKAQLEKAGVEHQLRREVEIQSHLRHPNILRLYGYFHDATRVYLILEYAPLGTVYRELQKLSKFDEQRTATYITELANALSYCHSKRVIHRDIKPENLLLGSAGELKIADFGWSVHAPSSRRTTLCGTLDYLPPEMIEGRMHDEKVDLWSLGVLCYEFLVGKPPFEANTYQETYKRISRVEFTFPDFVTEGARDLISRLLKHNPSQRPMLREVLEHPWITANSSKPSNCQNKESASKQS
Chain of Rho-associated protein kinase 1 (Homo sapiens) (Q13464 2-1354 limits assumed): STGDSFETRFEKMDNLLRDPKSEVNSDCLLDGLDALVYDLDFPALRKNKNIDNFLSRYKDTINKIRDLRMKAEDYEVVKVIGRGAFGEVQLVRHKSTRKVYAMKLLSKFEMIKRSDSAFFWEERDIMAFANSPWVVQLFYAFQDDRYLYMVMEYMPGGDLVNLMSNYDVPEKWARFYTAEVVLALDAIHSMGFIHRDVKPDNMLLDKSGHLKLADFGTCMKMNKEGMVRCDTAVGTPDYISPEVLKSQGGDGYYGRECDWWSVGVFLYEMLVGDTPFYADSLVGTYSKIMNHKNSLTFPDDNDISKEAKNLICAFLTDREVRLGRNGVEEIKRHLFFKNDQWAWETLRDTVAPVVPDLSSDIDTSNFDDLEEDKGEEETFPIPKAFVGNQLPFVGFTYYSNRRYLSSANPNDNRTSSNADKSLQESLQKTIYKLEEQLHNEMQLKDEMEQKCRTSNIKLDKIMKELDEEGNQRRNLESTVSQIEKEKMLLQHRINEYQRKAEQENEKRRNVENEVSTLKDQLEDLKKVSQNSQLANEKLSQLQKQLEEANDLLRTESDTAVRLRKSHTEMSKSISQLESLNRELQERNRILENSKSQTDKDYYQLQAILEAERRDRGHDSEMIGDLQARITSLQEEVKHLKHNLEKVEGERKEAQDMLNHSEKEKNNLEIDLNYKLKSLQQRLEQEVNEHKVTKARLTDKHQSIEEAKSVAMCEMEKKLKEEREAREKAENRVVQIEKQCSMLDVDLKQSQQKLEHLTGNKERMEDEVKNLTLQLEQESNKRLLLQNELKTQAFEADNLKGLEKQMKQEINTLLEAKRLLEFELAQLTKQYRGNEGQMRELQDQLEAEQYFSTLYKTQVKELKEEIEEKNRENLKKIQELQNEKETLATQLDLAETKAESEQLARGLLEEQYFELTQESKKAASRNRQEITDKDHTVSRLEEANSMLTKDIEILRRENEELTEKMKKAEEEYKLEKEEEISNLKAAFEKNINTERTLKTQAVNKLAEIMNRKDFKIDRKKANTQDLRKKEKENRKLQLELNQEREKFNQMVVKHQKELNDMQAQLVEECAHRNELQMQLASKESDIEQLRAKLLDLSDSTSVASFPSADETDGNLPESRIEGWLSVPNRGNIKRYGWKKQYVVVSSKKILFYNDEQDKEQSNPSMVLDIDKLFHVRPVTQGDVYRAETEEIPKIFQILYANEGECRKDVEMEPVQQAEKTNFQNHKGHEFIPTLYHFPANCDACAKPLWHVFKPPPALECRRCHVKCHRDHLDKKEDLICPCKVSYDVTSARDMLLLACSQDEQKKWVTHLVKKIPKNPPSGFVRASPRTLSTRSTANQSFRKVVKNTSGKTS
Chain of Insulin-like growth factor 1 receptor (Homo sapiens) (P08069 31-736 limits assumed): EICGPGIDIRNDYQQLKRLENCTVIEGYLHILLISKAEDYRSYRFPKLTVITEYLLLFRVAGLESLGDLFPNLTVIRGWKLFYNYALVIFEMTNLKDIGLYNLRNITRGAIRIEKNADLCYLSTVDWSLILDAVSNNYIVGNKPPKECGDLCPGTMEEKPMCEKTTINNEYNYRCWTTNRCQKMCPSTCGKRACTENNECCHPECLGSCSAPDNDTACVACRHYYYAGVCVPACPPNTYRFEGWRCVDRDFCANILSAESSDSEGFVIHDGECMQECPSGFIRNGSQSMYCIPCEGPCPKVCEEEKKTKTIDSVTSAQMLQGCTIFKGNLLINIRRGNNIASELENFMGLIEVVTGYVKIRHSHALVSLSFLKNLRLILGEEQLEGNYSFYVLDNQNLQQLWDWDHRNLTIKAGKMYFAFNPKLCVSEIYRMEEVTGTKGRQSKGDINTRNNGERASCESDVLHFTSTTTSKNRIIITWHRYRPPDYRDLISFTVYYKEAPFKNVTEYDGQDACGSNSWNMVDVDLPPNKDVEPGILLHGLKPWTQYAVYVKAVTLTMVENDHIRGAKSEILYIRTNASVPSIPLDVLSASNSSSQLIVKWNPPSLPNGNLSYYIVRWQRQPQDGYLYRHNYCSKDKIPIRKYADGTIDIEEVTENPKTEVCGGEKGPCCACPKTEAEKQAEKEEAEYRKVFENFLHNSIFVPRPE
Chain of Insulin-like growth factor 1 receptor (Homo sapiens) (P08069 741-1367 limits assumed): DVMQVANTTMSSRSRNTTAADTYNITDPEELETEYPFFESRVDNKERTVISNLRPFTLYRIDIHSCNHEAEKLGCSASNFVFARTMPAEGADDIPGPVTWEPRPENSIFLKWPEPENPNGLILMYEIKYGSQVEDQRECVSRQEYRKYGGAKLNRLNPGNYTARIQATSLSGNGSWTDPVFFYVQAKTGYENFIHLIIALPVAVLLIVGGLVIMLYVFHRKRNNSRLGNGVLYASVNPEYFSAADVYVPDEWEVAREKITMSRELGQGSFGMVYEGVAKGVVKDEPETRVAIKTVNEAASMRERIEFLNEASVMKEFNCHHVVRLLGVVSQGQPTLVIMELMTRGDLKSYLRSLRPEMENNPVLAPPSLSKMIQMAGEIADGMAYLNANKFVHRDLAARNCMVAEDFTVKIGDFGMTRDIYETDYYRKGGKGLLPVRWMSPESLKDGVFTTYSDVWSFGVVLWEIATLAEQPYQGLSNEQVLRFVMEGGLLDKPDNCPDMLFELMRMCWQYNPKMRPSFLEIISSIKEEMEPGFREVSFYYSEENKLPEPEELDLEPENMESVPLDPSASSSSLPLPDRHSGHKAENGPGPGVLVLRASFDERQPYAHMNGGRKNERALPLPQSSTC
Chain of Voltage-gated inwardly rectifying potassium channel KCNH2 (Q12809 whole entry): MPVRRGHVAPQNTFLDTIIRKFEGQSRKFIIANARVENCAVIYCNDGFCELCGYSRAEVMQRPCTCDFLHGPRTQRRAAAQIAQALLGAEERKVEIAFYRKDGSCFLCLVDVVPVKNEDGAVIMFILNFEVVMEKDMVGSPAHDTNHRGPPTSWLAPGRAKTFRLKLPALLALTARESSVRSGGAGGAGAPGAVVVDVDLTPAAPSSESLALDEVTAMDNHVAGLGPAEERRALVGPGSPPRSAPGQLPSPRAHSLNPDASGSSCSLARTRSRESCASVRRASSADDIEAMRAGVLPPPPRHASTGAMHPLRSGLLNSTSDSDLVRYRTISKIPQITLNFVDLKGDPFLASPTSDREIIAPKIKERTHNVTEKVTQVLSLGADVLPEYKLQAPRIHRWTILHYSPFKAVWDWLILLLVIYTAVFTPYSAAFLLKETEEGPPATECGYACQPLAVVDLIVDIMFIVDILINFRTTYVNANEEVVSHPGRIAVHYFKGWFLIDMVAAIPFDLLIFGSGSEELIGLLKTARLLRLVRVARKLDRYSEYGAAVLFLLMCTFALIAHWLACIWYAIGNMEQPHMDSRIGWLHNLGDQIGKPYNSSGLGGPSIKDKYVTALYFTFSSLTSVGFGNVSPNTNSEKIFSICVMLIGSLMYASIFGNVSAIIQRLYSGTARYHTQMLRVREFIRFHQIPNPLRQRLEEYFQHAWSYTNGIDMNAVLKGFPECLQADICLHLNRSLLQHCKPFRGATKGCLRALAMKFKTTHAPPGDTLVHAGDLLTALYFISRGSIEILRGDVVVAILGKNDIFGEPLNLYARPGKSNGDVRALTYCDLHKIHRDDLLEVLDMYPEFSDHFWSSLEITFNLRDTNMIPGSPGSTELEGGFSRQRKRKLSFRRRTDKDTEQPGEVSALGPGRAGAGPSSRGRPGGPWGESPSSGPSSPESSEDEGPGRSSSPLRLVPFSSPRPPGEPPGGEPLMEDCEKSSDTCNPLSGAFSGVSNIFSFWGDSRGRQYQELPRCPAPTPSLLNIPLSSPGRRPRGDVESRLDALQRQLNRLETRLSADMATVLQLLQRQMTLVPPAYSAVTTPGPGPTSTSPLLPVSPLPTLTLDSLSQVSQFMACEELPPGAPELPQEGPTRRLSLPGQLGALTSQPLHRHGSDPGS

**Q.** Which GI50 (K562 [1]) does the source give for `Nc1n[nH]c2cccc(C#Cc3cccc(NC(=O)c4ccc(N5CCOCC5)c(C(F)(F)F)c4)c3)c12` here?
**A.** 20 nM

**Q.** What about the GI50 (K562 [2]) of the same compound?
**A.** < 10 nM

**Q.** What about the inhibition [3] of the same compound?
**A.** < 30%

**Q.** And the GI50 (MOLT-4 [4])?
**A.** 1310 nM

**Q.** And the clearance [5]?
**A.** 5 mL/min/kg

**Q.** And the EC50 [6]?
**A.** 14.6 nM

**Q.** And the Ratio IC50 (Homo sapiens [7])?
**A.** 310

**Q.** What about the inhibition [8] of the same compound?
**A.** 87.8%

**Q.** What about the inhibition [9] of the same compound?
**A.** < 30%

**Q.** And the inhibition [10]?
**A.** < 30%

**Q.** What about the inhibition [11] of the same compound?
**A.** 87.8%

**Q.** What about the GI50 at 72 h [12] of the same compound?
**A.** 9270 nM

**Q.** What about the inhibition of growth at 10 µM (K562 [13]) of the same compound?
**A.** 99%

**Q.** What about the inhibition of growth at 10 µM (SR [14]) of the same compound?
**A.** 87.4%

**Q.** What about the GI50 (HL-60(TB) [15]) of the same compound?
**A.** 1400 nM

**Q.** And the AUC(0-t) at 8 h [16]?
**A.** 175 ng·h/mL

**Q.** And the GI50 (SR [17])?
**A.** 2400 nM

**Q.** What about the IC50 (Bcr/Abl fusion protein [18]) of the same compound?
**A.** 227 nM

**Q.** What about the inhibition of growth at 10 µM (MOLT-4 [19]) of the same compound?
**A.** 92.3%

**Q.** What about the MRT [20] of the same compound?
**A.** 4.7 h

**Q.** And the Vd [21]?
**A.** 1.4 L/kg

**Q.** And the inhibition [22]?
**A.** < 30%

**Q.** And the inhibition [23]?
**A.** < 30%

**Q.** What about the inhibition of growth at 10 µM (RPMI-8226 [24]) of the same compound?
**A.** > 100%

**Q.** What about the half-life [25] of the same compound?
**A.** 0.7 h

**Q.** What about the Ratio IC50 (Homo sapiens [26]) of the same compound?
**A.** 14.3

**Q.** What about the inhibition [27] of the same compound?
**A.** 87.8%

**Q.** What about the RatioGI50 [28] of the same compound?
**A.** 140

**Q.** And the inhibition [29]?
**A.** < 30%

**Q.** What about the inhibition [30] of the same compound?
**A.** 43.4%

**Q.** What about the IC50 (Bcr/Abl fusion protein [31]) of the same compound?
**A.** 4.6 nM

**Q.** What about the GI50 (RPMI-8226 [32]) of the same compound?
**A.** 1980 nM

**Q.** What about the MRT [33] of the same compound?
**A.** 1.3 h

**Q.** And the inhibition [34]?
**A.** < 30%

**Q.** What about the Ratio IC50 (Homo sapiens [35]) of the same compound?
**A.** 3.5

**Q.** What about the inhibition [36] of the same compound?
**A.** 87.8%

**Q.** What about the IC50 [37] of the same compound?
**A.** 66 nM

**Q.** What about the inhibition [38] of the same compound?
**A.** < 30%

**Q.** What about the Tmax [39] of the same compound?
**A.** 0.6 h

**Q.** What about the inhibition [40] of the same compound?
**A.** 43.4%

**Q.** And the IC50 [41]?
**A.** 3400 nM

**Q.** What about the inhibition of growth at 10 µM (HL-60(TB) [42]) of the same compound?
**A.** 98%

**Q.** And the GI50 (CCRF-CEM)?
**A.** 1360 nM
